Test results: patent publication US20260325473A1, “N-Beta-Hydroxybutyryl-Amino Acids and Related Compositions and Methods” (The Board of Trustees of the Leland Stanford Junior …, priority 2023, published 2026)

Key:
CNDP2 [1] = molecular target: T1, CNDP2 (Mus musculus, UniProt Q9D1A2); assay: In vitro synthase (condensation) activity, lysates of CNDP2-transfected HEK293T cells; assay type: biochemical; set-up: expressed in transfected cells; host or cells: HEK293T (lysate); details: role: product; lactate and BHB at varying concentrations, phenylalanine 20 mM
T1 sequence (Q9D1A2 1-475): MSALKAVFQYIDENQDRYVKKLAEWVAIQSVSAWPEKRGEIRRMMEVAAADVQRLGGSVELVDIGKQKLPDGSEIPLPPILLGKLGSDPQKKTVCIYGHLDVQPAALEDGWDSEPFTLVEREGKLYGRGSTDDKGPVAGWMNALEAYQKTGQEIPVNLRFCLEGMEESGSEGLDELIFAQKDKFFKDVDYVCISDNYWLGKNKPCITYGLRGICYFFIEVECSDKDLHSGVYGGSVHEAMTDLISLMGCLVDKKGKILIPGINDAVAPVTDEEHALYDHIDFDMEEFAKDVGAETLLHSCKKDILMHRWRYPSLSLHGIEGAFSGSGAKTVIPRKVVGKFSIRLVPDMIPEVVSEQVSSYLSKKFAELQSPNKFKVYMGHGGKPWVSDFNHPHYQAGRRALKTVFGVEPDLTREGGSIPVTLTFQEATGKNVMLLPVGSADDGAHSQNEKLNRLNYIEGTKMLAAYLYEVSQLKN
Experimental: In vitro enzyme activity assays. HEK293T cells were transfected with GFP, CNDP2 or CNDP2-E166A using PolyFect (Qiagen 301105) according to the manufacturer's instructions. The medium was changed one day post-transfection. After an additional 24 h, the cells were harvested in PBS, lysed by sonication and centrifuged (10 min at 15,000 rpm) to remove debris. Supernatant was collected and protein concentrations were adjusted. The in vitro reactions were conducted in Eppendorf tubes with 100 μL of 1 mg/mL protein and 20 mM substrates for keto amino acid synthase activity assays and. Reactions were incubated for 1 h at 37° C. and 20 μl of 1 M HCl were added to acidify the medium and to protonate keto amino acids. Reactions were vortexed and 400 μL of ethyl acetate were added to each reaction. Reactions were vortexed for 30 s to extract keto amino acids into the organic layer and centrifuged at 4° C. for 10 min at 15,000 r.p.m. A total of 300 μl from the top layer was transferred to a new Eppendorf tube and dried down under a stream of nitrogen. The residue was re-suspended in 150 μl of an 2:1:1 mixture of acetonitrile: methanol: water. The mixture was centrifuged at 4° C. for 10 min at 15,000 r.p.m. and the supernatant was transferred to a LC-MS vial.

brain lysate proteins = assay: Competition of X-Phe photoprobe-labeled brain proteins, quantitative shotgun proteomics; assay type: binding, mouse
Experimental: Shotgun proteomics of X-Phe photoprobe-labeled proteins. Brains from wild type C57BL/6J mice were harvested and homogenized using a bead blaster in PBS. Brain homogenate was centrifuged (15,000 rpm, 10 min) to yield the cytosolic supernatant and membrane pellet fractions. The cytosolic fraction was transferred to a new eppie and centrifuged again (15,000 rpm, 10 min). This process was repeated 4 times until no pellet was present after centrifugation. The membrane pellet was washed with 1 ml PBS and centrifuged (15,000 rpm, 10 min); this step was also repeated 4 times to remove any cytosolic protein contamination. After the centrifugation steps, the membrane pellet was re-suspended in PBS and sonicated. For competition experiments, brain lysate was normalized to 2 mg/ml in PBS and incubated with competitors at the indicated concentrations at room temperature for 30 minutes. 100 μM of the photoprobe was added and the reactions incubated on ice for 10 minutes protected from light. Reactions were then put under UV for 1 min on a UV Stratalinker. A biotin click reaction was performed by adding the following reagents to the indicated final concentrations: […], 1 mM CuSO4, 1 mM TCEP (freshly prepared), 30 μM Biotin-N3. Reactions were allowed to proceed for 1 hour at room temp, protected from light, and while rotating. The following prep was adapted from Niphakis et al. 2015. To each reaction, the following solvents were added in order, 4 ml cold methanol, 1 ml cold chloroform, 2 ml cold PBS. The mixture was vortexed well and centrifuged (4,600×g, 15 min, 4° C.). After centrifugation the organic and aqueous layers were removed without disruption of the protein disc. The protein disc was washed with a cold 1:1 mixture of methanol:chloroform 3 times. After the final wash, the protein disc was re-suspended in a 4:1 mixture of methanol:chloroform and sonicated. The insoluble protein was pelleted by centrifugation (4,600×g, 15 min, 4 C) and the pellet re-suspended in freshly prepared 500 μl of 6 M urea in PBS. 20 μl of 10% (w/v) SDS was added to the solution. The solution was then warmed in a 37 C water bath for 10 min to help dissolve poorly soluble protein. A streptavidin pulldown was the performed on the protein mixture. 250 μl of streptavidin beads were washed 3 times with 1 ml PBS. Protein samples were diluted with 5.5 ml of 0.25% SDS in PBS and incubated with streptavidin beads for 1.5 hr at room temperature. Following incubation, beads were washed 5 times each with 0.25% SDS in PBS, then PBS, then lastly with ultra-pure water Steptavidin beads were suspended in 150 μL resuspension buffer (1 M urea, 50 mM Tris-HCl, pH 8). Proteins were digested with 3 μg of trypsin for 4 hours. Digested peptides were reduced with 5 mM TCEP for 10 minutes. Cys residues were alkylated using 15 mM iodoacetimide (IAA) for 20 minutes. Finally, excess IAA was quenched with 10 mM DTT. Acidified digested peptides were desalted over C18 StageTips [PMID: 12585499]. Peptides were then eluted with 80% acetonitrile, 0.1% TFA and dried in a speedvac. Dried samples were reconstituted with 200 mM EPPS buffer, pH 8.0, and labelled with TMT reagents (Thermo Fisher Scientific). Following incubation at room temperature for 2 h, the reactions were quenched with hydroxylamine to a final concentration of 0.5% (v/v). […]

CNDP2 [2] = molecular target: T1, CNDP2; details: Li et al. 2022; cited from earlier work
food intake = details: Li et al. 2022; cited from earlier work
[3] = Metabolite quantitation in mouse plasma (QQQ-LC/MS); assay type: in vivo
Experimental: Preparation of plasma samples for LC-MS analysis. Plasma was collected from mice via a submandibular bleed into lithium heparin tubes (BD, 365985) and immediately transferred onto ice. The blood was centrifuged at 4° C. at 5000 rpm for 5 min and the top layer of plasma was aliquoted and frozen at −80 °C. To extract polar metabolites from plasma for LC-MS analysis, 150 μl of a 2:1 mixture of acetonitrile/methanol was added to 50 μl of plasma. The mixture was centrifuged at 4° C. for 10 min at 15,000 rpm and the supernatant was transferred to a LC-MS vial.
Targeted metabolomics. Targeted measurements were performed using an Agilent 6470 triple quadrupole LC-MS instrument. MS analysis was performed using AJS in negative mode. The AJS source parameters were set as follows: the dry gas temperature was set at 250° C. with a gas flow of 12 l/min and the nebulizer pressure at 25 psi; the sheath gas temperature was set to 300° C. with the sheath gas flow set at 12 l/min; and the capillary voltage was set to 3,500 V. Separation of polar metabolites was performed as described above in the ‘Untargeted measurements of metabolites by LC-MS’ section. Multiple reaction monitoring was performed for the indicated metabolites with the listed dwell times, fragmentor voltage, collision energies, cell accelerator voltages and polarities. Quantification of the endogenous metabolite concentrations were performed by generating a standard curve with known concentrations of each metabolite. Metabolite standards were analyzed alongside the plasma samples using the same targeted triple quadrupole LC/MS method. A calibration standard curve generated from the metabolite standard concentrations and total peak areas were used to calculate the concentrations of each endogenous metabolite. The dilution of the plasma during the sample preparation was also taken into account for the quantification.

CNDP2 [4] = molecular target: T1, CNDP2; assay: In vitro synthase (condensation) activity, lysates of CNDP2-transfected HEK293T cells; assay type: biochemical; set-up: expressed in transfected cells; host or cells: HEK293T (lysate); details: role: substrate; organic acids 1 mM with 10 mM phenylalanine

C[C@H](O)C(=O)N[C@@H](Cc1ccccc1)C(=O)O [Lac-Phe, N-lactoyl phenylalanine]
products formed from combined lactate and BHB (CNDP2 [1]): simultaneous production
competition of X-Phe photoprobe-labeled proteins (brain lysate proteins; 100 μM photoprobe, 50-fold excess competitor): > 80%
number of the 32 Keto-Phe targets also >80% competed by Lac-Phe (brain lysate proteins; 50-fold excess Lac-Phe): 30 out of 32
share of the 32 Keto-Phe targets also >80% competed by Lac-Phe (brain lysate proteins; 50-fold excess Lac-Phe): 94%
Lac-Phe levels upon genetic ablation of CNDP2 (CNDP2 [2]): dramatically reduces Lac-Phe levels
food intake (food intake): suppresses food intake
elevation after acute treadmill running ([3]; 15 min running): 8 fold
effect of ketone ester administration on level ([3]; 30 min after ketone drink, 3 mg/g): without affecting Lac-Phe levels
effect of strenuous and prolonged exercise on level ([3]; 30 min strenuous running): robust co-induction

CC(=O)O [acetate]
CNDP2 activity towards organic acid substrates (CNDP2 [4]): unable to accept
